Measured values published in PubChem BioAssay AID602322 (The Scripps Research Institute Molecular Screening Center, 2012).
pIC50: −log10 of the molar value. Activity calls are given as the source filed them. The rule behind the calls is not given here.

Legend:
[1] = target: Diacylglycerol lipase-beta (Mus musculus) (UniProt Q91WC9); experiment: DAGLb and ABHD6 inhibitors by competitive ABPP – biochemical, gel-based competitive ABPP, fluorescent probe, mouse, selectivity assay for DAGLb inhibitor project, dose response (AID 602322); conditions: proteome, DAGLb
Sequence of Diacylglycerol lipase-beta (Mus musculus) (Q91WC9 whole entry, looked up): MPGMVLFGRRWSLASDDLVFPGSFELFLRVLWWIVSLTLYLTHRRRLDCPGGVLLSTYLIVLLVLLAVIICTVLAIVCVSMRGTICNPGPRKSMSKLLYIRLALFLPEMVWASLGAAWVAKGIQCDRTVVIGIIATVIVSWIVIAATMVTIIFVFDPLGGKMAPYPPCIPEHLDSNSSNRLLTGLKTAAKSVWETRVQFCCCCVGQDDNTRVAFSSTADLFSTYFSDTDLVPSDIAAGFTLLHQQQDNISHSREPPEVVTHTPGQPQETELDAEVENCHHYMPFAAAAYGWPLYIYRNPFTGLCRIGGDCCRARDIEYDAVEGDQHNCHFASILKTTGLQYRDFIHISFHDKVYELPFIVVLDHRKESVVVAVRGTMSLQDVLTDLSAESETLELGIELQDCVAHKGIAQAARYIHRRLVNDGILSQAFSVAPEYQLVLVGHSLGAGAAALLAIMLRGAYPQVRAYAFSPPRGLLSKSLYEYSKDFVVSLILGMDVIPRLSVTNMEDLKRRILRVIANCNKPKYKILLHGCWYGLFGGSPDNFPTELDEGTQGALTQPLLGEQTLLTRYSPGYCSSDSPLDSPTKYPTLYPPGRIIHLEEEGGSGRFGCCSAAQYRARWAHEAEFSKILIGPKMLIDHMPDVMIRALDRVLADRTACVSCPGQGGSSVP

[2] = target: Monoacylglycerol lipase ABHD6 (Mus musculus) (UniProt Q8R2Y0); experiment: as above; conditions: proteome
Sequence of Monoacylglycerol lipase ABHD6 (Mus musculus) (Q8R2Y0 whole entry, looked up): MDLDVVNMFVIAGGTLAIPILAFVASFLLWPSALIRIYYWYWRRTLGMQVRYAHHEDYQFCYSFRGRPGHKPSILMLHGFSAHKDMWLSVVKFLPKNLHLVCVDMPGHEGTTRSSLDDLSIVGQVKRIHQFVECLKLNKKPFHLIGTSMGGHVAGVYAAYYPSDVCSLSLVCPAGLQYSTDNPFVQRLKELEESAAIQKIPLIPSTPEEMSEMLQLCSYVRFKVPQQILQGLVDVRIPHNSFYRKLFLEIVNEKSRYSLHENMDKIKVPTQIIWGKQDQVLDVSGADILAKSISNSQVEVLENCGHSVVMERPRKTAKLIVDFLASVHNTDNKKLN

| Structure (SMILES) | IC50 [1] | pIC50 [2] |
| --- | --- | --- |
| COc1ccc(-c2ccc(-c3cn(C(=O)N4CCCCC4c4ccccc4)nn3)cc2)cc1 (stereo unspecified) | > 3330 nM (inactive) | 7.42 |
| O=C(O)c1cccc(-c2ccc(-c3cn(C(=O)N4CCCCC4Cc4ccccc4)nn3)cc2)c1 (stereo unspecified) | > 100 nM (inactive) |  |
| O=C(N1CCCCC1c1ccccc1)n1cc(-c2ccc(-c3ccccc3)cc2)nn1 (stereo unspecified) | > 100 nM (inactive) | 8.00 |
| O=C(N1CCCCC1c1ccccc1)n1cc(-c2ccc(-c3cccc(CO)c3)cc2)nn1 (stereo unspecified) | > 100 nM (inactive) |  |
